Assay results published in patent US8975223B2, “Methods for treating metabolic disorders and obesity with a peptide comprising the amino acid sequence of SEQ ID No. 146” (Marcadia Biotech, Inc., priority 2010, dated 2015).
Entries after “also recorded” stand apart in the source; their conditions may differ. Where no end group is shown, it is not given here. [ ]: non-standard residue; d: D form. Aib = CC(C)(N)C(=O)O

Key:
Type in all cases: in vivo, human
[1] = Phase I single-ascending dose study, safety, tolerability, PK and PD, single SC injection; settings: for mean daily fasting glucose level by day 7: healthy subjects (placebo 78.7)
Method: A Phase I, randomized, placebo-controlled, sequential, single-ascending, two period, study was performed in healthy male subjects to evaluate the safety, tolerability, pharmacokinetic (PK), and pharmacodynamic (PD) properties of extended half-life GLP-1/GIP coagonist peptide. Healthy adult male subjects (about 18 to 55 years of age) who were in general good health based on medical history, physical examination, ECG, and routine laboratory tests (e.g., blood, chemistry, hematology, urinalysis, and drug screen) with a body mass index between 20 kg/m^2 and 30 kg/m^2 were selected for the study. The extended half-life GLP-1/GIP coagonist peptide tested in all of the Examples was SEQ ID NO: 153.
The subjects were randomized into cohorts.
Following an overnight fast of at least 10 hours, the subjects received a single dose of the study drug or placebo as a subcutaneous (SC) injection in the abdomen. Blood samples were collected for fasting insulin, glucose, and glucagon levels pre-dose (i.e., within 30 minutes prior to dosing) on Day 1 and on Days 2, 3, 4, 5, 6, and 7. Plasma samples for pharmacokinetic analysis were collected pre-dose and at 0.5, 1, 2, 4, 8, and 12 hours post-dose on Day 1 and on Days 2, 3, 4, 5, 6, 7, 14, 28, and 35. The subjects were monitored through Day 35 for adverse events, weight, and vital signs.

[2] = test system: beta cell response to a glucose load; assay: Phase I two-part study, beta cell response to graded glucose infusion; settings: for LS mean change in insulin secretion rate at each glucose infusion rate, placebo vs treatment: 72 hours after dosing, p<0.001
Method: (§1) A Phase I, randomized, placebo-controlled, positive-controlled two-part study was performed in healthy male and female subjects to evaluate the effect of a range of doses on beta cell response to a glucose load and to assess the effect of these doses on gastric emptying. Beta cell function was assessed by calculation of prehepatic insulin secretion in response to a graded glucose infusion. Gastric emptying was assessed by measurement of plasma appearance of ingested acetaminophen.
(§2) During Part 2, subjects in Cohort 2 received placebo on Day 1, followed by 8 mg of the extended half-life GLP-1/GIP coagonist peptide on Day 2. Subjects in Cohort 3 received placebo on Day 1, followed by 4 mg of the extended half-life GLP-1/GIP coagonist peptide on Day 2. Subjects in Cohort 4 received placebo on Day 1, followed by 16 mg of the extended half-life GLP-1/GIP coagonist peptide on Day 2.
(§3) Blood samples for glucose, C-peptide, insulin, and safety laboratory tests were drawn at −120, −15, and −10 minutes. At −10 minutes, subjects ingested 1000 mg acetaminophen elixir with 240 mL water. At 0 minutes, a step-wise infusion of glucose (20% dextrose) was started, a second SC injection of placebo was administered, and blood samples for glucose, C-peptide, insulin, and safety laboratory tests were drawn. Glucose was infused for a total of 2.5 hours at a rate of 2, 4, 6, 8, and 12 mg/kg/min. Each level of glucose infusion was maintained for 30 minutes. Blood samples for glucose, C-peptide, and insulin were drawn again at 10, 20, and 30 minutes during each 30-minute infusion period. Blood samples for plasma acetaminophen concentration were drawn at −10, 30, 60, 90, 120, 150, 180, 210, 240, 300, and 480 minutes.
(§4) Blood samples for glucose, C-peptide, and insulin were drawn at −120, −15, and −10 minutes. At −10 minutes, subjects ingested 1000 mg acetaminophen elixir with 240 mL water. […] Glucose was infused for a total of 2.5 hours at a rate of 2, 4, 6, 8, and 12 mg/kg/min. Each level of glucose infusion was maintained for 30 minutes. […] Blood samples for glucose, C-peptide, and insulin were drawn at 10, 20, and 30 minutes during each 30-minute infusion period. Blood samples for plasma acetaminophen concentration were drawn at −10, 30, 60, 90, 120, 150, 180, 210, 240, 300, and 480 minutes.
(§5) Blood samples for glucose, C-peptide, insulin, and safety laboratory tests were drawn at −15 and −10 minutes. At −10 minutes, subjects ingested 1000 mg acetaminophen elixir with 240 mL water. At 0 minutes, a step-wise infusion of glucose (20% dextrose) was started and blood samples for glucose, C-peptide, and insulin were drawn. Glucose was infused for a total of 2.5 hours at a rate of 2, 4, 6, 8, and 12 mg/kg/min. Each level of glucose infusion was maintained for 30 minutes. Blood samples for glucose, C-peptide, and insulin were drawn again at 10, 20, and 30 minutes during each 30-minute infusion period. Blood samples for plasma acetaminophen concentration were drawn at −10, 30, 60, 90, 120, 150, 180, 210, 240, 300, and 480 minutes.
On Day 2, following an overnight fast of 10 hours, a blood sample for glucose, C-peptide, and insulin was drawn at −10 minutes. Subjects received an injection of extended half-life GLP-1/GIP coagonist peptide at 0 minutes. Subjects in Cohort 2 received 8 mg of extended half-life GLP-1/GIP coagonist peptide, subjects in Cohort 3 received 4 mg of extended half-life GLP-1/GIP coagonist peptide, and subjects in Cohort 4 received 16 mg of extended half-life GLP-1/GIP coagonist peptide. At 0 minutes, a blood sample for extended half-life GLP-1/GIP coagonist peptide concentration, C-peptide, insulin, glucose, and safety laboratory tests was drawn.
At −10 minutes, subjects ingested 1000 mg acetaminophen elixir with 240 mL water. […] Glucose was infused for a total of 2.5 hours at a rate of 2, 4, 6, 8, and 12 mg/kg/min. Each level of glucose infusion was maintained for 30 minutes.

gastric emptying = assay: Phase I two-part study, gastric emptying by plasma appearance of ingested acetaminophen
Method: as §1, §2, §3, §4, §5
At −10 minutes, subjects ingested 1000 mg acetaminophen elixir with 240 mL water. […] Glucose was infused for a total of 2.5 hours at a rate of 2, 4, 6, 8, and 12 mg/kg/min. Each level of glucose infusion was maintained for 30 minutes. […] Blood samples for plasma acetaminophen concentration were drawn at −10, 30, 60, 90, 120, 150, 180, 210, 240, 300, and 480 minutes.

[3] = 4 mg, 8 mg, 16 mg, graded glucose infusion
[4] = 4 mg, 8 mg, 16 mg, 72 hours after dosing

extended half-life GLP-1/GIP coagonist peptide: The extended half-life GLP-1/GIP coagonist peptide tested in all of the Examples was SEQ ID NO: 153 (Y[Aib]EGTFTSDYSIYLDKQAA[Aib]EFVC(PEG 40 kDa)WLLAGGPSSGAPPPSK-NH2)
AUC (AUC0-144) ([1]; 0.1 mg single SC dose, plasma): 12,349 pM·hr | Cmax ([1]; 0.1 mg single SC dose, plasma): 0.183 nM | AUC (AUC0-144) ([1]; 8 mg single SC dose, plasma): 1,382,376 pM·hr | Cmax ([1]; 8 mg single SC dose, plasma): 13 nM | mean daily fasting glucose level by day 7 ([1]; 16 mg dose): 76.5 mg/dL | time to maximum observed plasma concentration (Tmax) ([1]; 16 mg single SC dose): 112.5 h | mean daily fasting glucose level by day 7 ([1]; 24 mg dose): 72.7 mg/dL | time to maximum observed plasma concentration (Tmax) ([1]; 24 mg single SC dose): 56.0 h | mean daily fasting glucose level by day 7 ([1]; 32 mg dose): 71.7 mg/dL | time to maximum observed plasma concentration (Tmax) ([1]; 32 mg single SC dose): 80.0 h | AUC (AUC0-last) ([1]; 32 mg single SC dose, plasma): 12,582 nM·hr | Cmax ([1]; 32 mg single SC dose, plasma): 54.8 nM | absolute bioavailability ([1]; SC injection): 100% | dose proportionality of AUC and Cmax ([1]; doses ranging from 0.1 mg to 32 mg): dose proportional | dose-related trends for fasting insulin, glucose and glucagon levels ([1]; healthy subjects): No dose-related trends | apparent t1/2 ([1]; plasma, single SC dose, healthy male subjects): approximately 5 days | safety and tolerability ([1]; single SC doses 0.1 mg to 32 mg, healthy male subjects): generally safe and well tolerated; also recorded: well tolerated and not associated with adverse events, clinically important laboratory findings, or ECG findings | LS mean change in C peptide, comparison between dose groups ([2]; 4 mg vs 8 mg groups, p=0.0055): 0.01 ng/mL per mg/dL | LS mean change in insulin secretion rate, comparison between dose groups ([2]; 4 mg vs 8 mg groups, p=0.0067): 0.01 μIU/mL per mg/dL | LS mean change in insulin, comparison between dose groups ([2]; 4 mg vs 8 mg groups, p=0.0251): 0.09 μIU/mL per mg/dL | LS mean change in C peptide, comparison between dose groups ([2]; 4 mg vs 16 mg groups, p<0.0001): 0.03 ng/mL per mg/dL | LS mean change in insulin secretion rate, comparison between dose groups ([2]; 4 mg vs 16 mg groups, p<0.0001): 0.04 μIU/mL per mg/dL | LS mean change in insulin, comparison between dose groups ([2]; 4 mg vs 16 mg groups, p<0.0001): 0.17 μIU/mL per mg/dL | C-peptide level in comparison to placebo [2, 3]: dose dependent, dose proportional, increase | insulin secretion rate (ISR) in comparison to placebo [2, 3]: dose dependent, dose proportional, increase | LS mean change in insulin secretion rate at each glucose infusion rate, placebo vs treatment ([2]; 4 mg): 0.03 μIU/mL | LS mean change in C peptide at each glucose infusion rate, placebo vs treatment ([2]; 4 mg, p<0.0001): 0.02 ng/mL per mg/dL | LS mean change in insulin at each glucose infusion rate, placebo vs treatment ([2]; 4 mg, p<0.0001): 0.27 μIU/mL per mg/dL | LS mean change in C peptide, comparison between dose groups ([2]; 8 mg vs 16 mg groups, p<0.0001): 0.02 ng/mL per mg/dL | LS mean change in insulin secretion rate, comparison between dose groups ([2]; 8 mg vs 16 mg groups, p<0.0001): 0.03 μIU/mL per mg/dL | LS mean change in insulin, comparison between dose groups ([2]; 8 mg vs 16 mg groups, p=0.0316): 0.08 μIU/mL per mg/dL | LS mean change in insulin secretion rate at each glucose infusion rate, placebo vs treatment ([2]; 8 mg): 0.04 μIU/mL | LS mean change in C peptide at each glucose infusion rate, placebo vs treatment ([2]; 8 mg, p<0.0001): 0.03 ng/mL per mg/dL | LS mean change in insulin at each glucose infusion rate, placebo vs treatment ([2]; 8 mg, p<0.0001): 0.35 μIU/mL per mg/dL | increase in insulin secretion rate ([2]; 16 mg (maximum dose), vs placebo, p=0.001): approximately 44% | change in glucose levels between the 8 mg/kg/min and 12 mg/kg/min infusion rates ([2]; 16 mg and 8 mg groups): no increases in glucose levels | LS mean change in insulin secretion rate at each glucose infusion rate, placebo vs treatment ([2]; 16 mg): 0.07 μIU/mL | LS mean change in C peptide at each glucose infusion rate, placebo vs treatment ([2]; 16 mg, p<0.0001): 0.05 ng/mL per mg/dL | LS mean change in insulin at each glucose infusion rate, placebo vs treatment ([2]; 16 mg, p<0.0001): 0.43 μIU/mL per mg/dL | glucose levels compared to placebo group ([2]; all dose groups, all glucose infusion rates): lower glucose levels than the placebo group | Cmax of plasma acetaminophen (gastric emptying; [4]): trend toward lower Cmax at a higher dose | Tmax of plasma acetaminophen compared to placebo (gastric emptying; [4]): not significantly different from placebo | total acetaminophen absorbed (AUC0-4 hr) compared to placebo (gastric emptying; [4]): not significantly different from placebo | delay in the absorption of acetaminophen (gastric emptying; 4 mg, 8 mg, 16 mg, 72 hours after dosing, 1000 mg acetaminophen): not associated with a significant delay | effect on gastric emptying (gastric emptying; doses that increase insulin secretion in response to a glucose infusion): does not delay gastric emptying
